According to patent US20060258670A1, “New phenylpyridylpiperazine compounds” (priority 2005, published 2006):

What was measured:
[1] = biological target: T1, type H3 central histamine receptors (Mus musculus, UniProt P58406); assay: Cerebral levels of N^t-methylhistamine in the NMRI mouse (ex vivo, RIA); settings: one hour after treatment, versus carrier
T1 construct: from tissue; host or cells: brain of living NMRI mice
Procedure: The purpose of this study, which was carried out in accordance with the method of Taylor et al. (Biochem. Pharm., 1992, 44, 1261-1267), is to evaluate the ex vivo activity of the compounds of the present invention as antagonists of type H3 central histamine receptors. […] An increase in the cerebral concentrations of N^t-methylhistamine indicates an increase in the turn-over of histamine by blockage of the type H3 central histamine receptors.
NMRI mice (18-20 g) are treated intraperitoneally or orally with compounds of the present invention or with their carrier (20 ml/kg). One hour after the pharmacological treatment, the animals are sacrificed, and their brains are removed, frozen in liquid nitrogen, weighed and homogenised in 0.1N HClO4 at 4° C. The homogenised products are centrifuged (15 000 g, 17 min, 4° C.). The supernatants are recovered and divided into aliquots. The aliquots are frozen in, liquid nitrogen and stored at −80° C. until analysis.
Determination of the cerebral levels of N^t-methylhistamine is carried out by radioimmunological assay (RIA) using an assay kit. The tissue levels of N^t-methylhistamine are expressed in […] of fresh brain. The comparison of the cerebral levels of N^t-methylhistamine between animals treated with the carrier (controls) and animals treated with compounds of the present invention is carried out by single-factor variance analysis followed, if necessary, by a complementary analysis (Dunnett's test).

Adult male Wistar rats = assay: Electroencephalographic recordings on freely moving rats; format: in vivo; settings: Wistar rat, EEG
Procedure: Adult male Wistar rats were chronically implanted with electrodes placed over the frontal and panetal cortex. Cortical electroencephalogram (EEG) was recorded from rats placed inside cages in a sound attenuating-room. Compounds and vehicle were administered in a random order at 10:00 AM on the same days with a minimum of 3 days between each administration, allowing each rat to serve as its own control. Absolute power of slow wave delta band activity (1-4 Hz), that predominates during slow wave sleep and disappears during wakefulness and rapid eyes movement sleep, was averaged over successive periods of 30 min. Over 30 min, low and high values of slow wave delta power are signs of arousal and sleep, respectively.

T1 sequence (P58406 whole entry): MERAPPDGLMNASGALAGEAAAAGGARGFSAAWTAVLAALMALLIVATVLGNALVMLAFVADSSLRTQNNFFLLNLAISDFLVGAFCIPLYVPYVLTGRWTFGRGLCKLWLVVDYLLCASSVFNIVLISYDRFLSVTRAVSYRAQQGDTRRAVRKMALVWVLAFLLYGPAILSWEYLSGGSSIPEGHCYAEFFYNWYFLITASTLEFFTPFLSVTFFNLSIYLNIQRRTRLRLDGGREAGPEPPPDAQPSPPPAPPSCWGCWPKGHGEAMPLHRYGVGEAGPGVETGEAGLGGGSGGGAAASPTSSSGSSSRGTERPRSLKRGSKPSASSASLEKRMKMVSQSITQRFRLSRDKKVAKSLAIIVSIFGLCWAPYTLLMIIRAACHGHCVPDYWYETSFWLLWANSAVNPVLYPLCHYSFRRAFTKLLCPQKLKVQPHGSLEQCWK

CC(C)N1CCN(c2ccc(-c3ccc(S(=O)(=O)N4CCOCC4)cc3)cn2)CC1.Cl.Cl [Example 1]
increase of endogenous cerebral concentrations of N^t-methylhistamine ([1]; 10 mg/kg PO): 105%
duration of significant reduction of slow wave delta power (cortical activation and arousal) (Adult male Wistar rats; 0.3 mg/kg): 150 min
sleep latency: first slow wave sleep episode after administration (Adult male Wistar rats; 3 mg/kg, control group 45±5 minutes): 73 ± 5 min

CC(C)CN1CCN(c2ccc(-c3ccc(S(=O)(=O)N4CCOCC4)cc3)cn2)CC1.Cl.Cl [Example 21, 4-({4-[6-(4-Isobutylpiperazin-1-yl)pyridin-3-yl]phenyl}sulphonyl)-morpholine dihydrochloride]
increase of endogenous cerebral concentrations of N^t-methylhistamine ([1]; 3 mg/kg PO): 168%

CC(C)N1CCN(c2ccc(-c3ccc(S(=O)(=O)N4CCN(C)CC4)cc3)cn2)CC1.Cl.Cl.Cl [Example 9, 1-Isopropyl-4-(5-{4-[(4-methylpiperazin-1-yl)sulphonyl]phenyl}pyridin-2-yl)piperazine trihydrochloride]
increase of endogenous cerebral concentrations of N^t-methylhistamine ([1]; 10 mg/kg PO): 121%

CCN1CCN(c2ccc(-c3ccc(S(=O)(=O)N4CCCCC4)cc3)cn2)CC1.Cl.Cl [Example 5]
increase of endogenous cerebral concentrations of N^t-methylhistamine ([1]; 10 mg/kg PO): 197%
